Measurements from patent publication US5929063A, “Mercapto and seleno derivatives as inhibitors of nitric oxide synthase” (priority 1995, dated 1999).
Read-outs that look alike come from different tables or passages of the source.

What was measured:
[1] = tested on: J774 macrophages; test: Nitrite production by immunostimulated J774 macrophages (endotoxin 24 h, Griess); format: cell-based, mouse; details: Mus musculus, read-out: EC50 for the inhibition of nitrite production by stimulated J774 macrophages
Protocol: This example illustrates the effect of selected mercapto derivatives on endotoxin-induced nitrite formation in J774.2 macrophages and on IL-1 gamma-interferon induced nitrite formation in cultured rat arctic smooth muscle cells. J774 macrophage cell lines were obtained from the American Type Culture Collection (ATCC) and were grown using standard methods in Dulbecco's Modified Eagle Medium (DMEM) supplemented with 10% fetal bovine serum, glutamine, penicillin (10,000 U/l) and streptomycin (10,000 U/l). Rat aortic smooth muscle cells (RASM) from Wistar rats were isolated by enzymatic dissociation using standard methods. The cells were positively identified as smooth muscle by indirect immunofluorescent staining for a-actin, using mouse anti-α-actin antibody and anti-mouse IgG fluorescein isothiocyanate (FITC) conjugate. RASM cells were grown in T-75 tissue culture flasks in 50% F12 nutrient medium and 50% Dulbecco's Modified Eagle Medium supplemented with 10% fetal bovine serum, glutamine, penicillin (10,000 U/l) and streptomycin (10,000 U/l). Cells were grown in 96-well plates for measure of nitrite production and cell viability. J774 macrophages were treated with endotoxin (10 μg/ml) for 24 hours; smooth muscle cells were treated with IL-1 (100 U/ml) and gamma-interferon (50 U/ml) for 48 hours.
Concentration of nitrite, the degradation product of NO in the culture medium, was determined by mixing equal volumes of medium with the Griess reagent (1% sulfanilamide/0.1% naphthylethylenediamine dihydrochloride/2.5% H3 PO4). The mixture was incubated for 10 minutes at room temperature to form the chromophore, then optical densities (OD) were determined at 550 nm (OD550). NaNO2 was used as the standard. Spectrophotometric measurements were performed in a dual-wavelength spectrophotometer.

[2] = molecular target: T1, iNOS (Rattus norvegicus, UniProt Q06518); test: Inhibition of iNOS activity in tissue homogenates (Table 2); format: biochemical; set-up: bNOS in tissue homogenates; from tissue; host or cells: tissue homogenate; details: iNOS (Table 2)
[3] = molecular target: T2, bNOS (Rattus norvegicus, UniProt P29476); test: bNOS activity in homogenates of whole rat brains; format: biochemical; details: bNOS (Table 2); read-out: EC50 for inhibition of bNOS activity in tissue homogenates
T2 construct: bNOS activity was measured using similar methods in homogenates of whole rat brains; from tissue; host or cells: homogenate of whole rat brains
T2 sequence (P29476 whole entry): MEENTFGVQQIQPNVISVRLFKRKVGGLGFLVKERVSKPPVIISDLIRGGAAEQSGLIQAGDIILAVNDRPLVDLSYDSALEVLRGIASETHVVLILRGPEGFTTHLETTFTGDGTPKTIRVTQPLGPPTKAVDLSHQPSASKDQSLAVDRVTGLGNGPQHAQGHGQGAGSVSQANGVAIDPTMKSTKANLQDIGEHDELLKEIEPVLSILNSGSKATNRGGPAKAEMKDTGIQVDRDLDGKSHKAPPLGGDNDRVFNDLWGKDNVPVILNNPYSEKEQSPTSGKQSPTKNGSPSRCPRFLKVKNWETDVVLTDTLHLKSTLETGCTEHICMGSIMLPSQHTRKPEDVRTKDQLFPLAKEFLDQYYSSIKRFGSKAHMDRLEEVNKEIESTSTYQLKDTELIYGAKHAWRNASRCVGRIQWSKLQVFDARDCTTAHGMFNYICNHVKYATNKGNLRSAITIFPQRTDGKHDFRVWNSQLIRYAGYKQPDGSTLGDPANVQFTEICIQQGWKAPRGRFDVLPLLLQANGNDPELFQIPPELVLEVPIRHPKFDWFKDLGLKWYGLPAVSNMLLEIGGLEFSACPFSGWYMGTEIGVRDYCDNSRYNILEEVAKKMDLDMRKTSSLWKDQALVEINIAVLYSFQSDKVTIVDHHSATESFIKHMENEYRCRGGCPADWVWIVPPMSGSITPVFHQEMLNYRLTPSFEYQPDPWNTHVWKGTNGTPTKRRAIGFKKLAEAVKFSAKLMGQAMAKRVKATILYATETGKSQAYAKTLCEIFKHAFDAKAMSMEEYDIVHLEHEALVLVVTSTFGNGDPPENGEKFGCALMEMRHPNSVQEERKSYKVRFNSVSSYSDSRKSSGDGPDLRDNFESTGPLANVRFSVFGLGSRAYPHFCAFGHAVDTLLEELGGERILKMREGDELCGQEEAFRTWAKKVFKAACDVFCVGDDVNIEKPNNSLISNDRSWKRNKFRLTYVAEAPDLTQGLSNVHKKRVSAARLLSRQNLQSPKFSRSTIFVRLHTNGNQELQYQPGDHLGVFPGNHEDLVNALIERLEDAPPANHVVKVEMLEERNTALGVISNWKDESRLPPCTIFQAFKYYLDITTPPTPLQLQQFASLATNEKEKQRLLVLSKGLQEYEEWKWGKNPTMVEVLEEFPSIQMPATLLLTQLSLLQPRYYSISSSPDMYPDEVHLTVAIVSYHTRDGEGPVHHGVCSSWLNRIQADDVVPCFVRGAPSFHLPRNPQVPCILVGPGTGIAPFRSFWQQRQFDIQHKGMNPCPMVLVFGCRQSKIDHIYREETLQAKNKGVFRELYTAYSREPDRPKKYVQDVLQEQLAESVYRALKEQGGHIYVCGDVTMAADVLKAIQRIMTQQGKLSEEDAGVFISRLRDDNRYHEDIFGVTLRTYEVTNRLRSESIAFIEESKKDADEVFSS

[4] = molecular target: T3, ecNOS (Bos taurus, UniProt P29473); test: ecNOS activity from intimal scrapings of fresh bovine aortae (conversion of [3H]-L-arginine to [3H]-L-citrulline); format: biochemical
T3 construct: the intimal surface of fresh bovine aortae was scraped and homogenized; from tissue; host or cells: homogenate of intimal scrapings of fresh bovine aortae
Protocol: The intimal surface of fresh bovine aortae was scraped in the presence of homogenation buffer composed of 50 mM Tris-HCl, 0.1 mM ethylenediamine tetraacetic acid (EDTA) and 0.1 mM ethyleneglycol bis (beta-aminoethyl ether) (EGTA). Conversion of [^3 H]-L-arginine to [^3 H]-L-citrulline was measured in the homogenates as follows: cell homogenate (50 μl) was incubated in the presence of [^3 H]-L-arginine (10 μM, 5 kBq/tube), NADPH (2 mM), calmodulin (30 nM), tetrahydrobiopterin (5 μM) and calcium (2 mM) for 20 minutes at 37° C. in N-2-hydroxethyl piperazine-N-2-ethane sulfonic acid (HEPES) buffer (pH 7.5). Reactions were stopped by dilution with 1 ml of ice cold HEPES buffer (pH 5.5) containing EGTA (2 mM) and EDTA (2 mM). Reaction mixtures were applied to Dowex 50W (Na^+ form) columns and the eluted [^3 H]-L-citrulline activity was measured by scintillation counting. bNOS activity was measured using similar methods in homogenates of whole rat brains.
For a preparation rich in ecNOS, the intimal surface of fresh bovine aortae was scraped and homogenized. The homogenization buffer was composed of 50 mM tris-HCL, 0.1 mM EDTA, 0.1 mM EGTA and 1 mM phenylmethylsulfonyl chloride (pH 7.4). Cell suspensions were homogenized in the homogenization buffer on ice using a Tissue Tearor 985-370 homogenizer (BioSpec Products, Racine, Wis.). Conversion of [^3 H]-L-arginine to [^3 H]-L-citrulline was measured in the homogenates as described in Example 3 above.

[5] = tested on: constitutive and inducible NOS isoforms; details: background literature; cited from earlier work
[6] = molecular target: T1, iNOS; test: iNOS activity in lung homogenates from rats treated with bacterial endotoxin; format: biochemical; set-up: Lungs were obtained from rats which had been treated with bacterial endotoxin; from tissue; host or cells: lung homogenate from endotoxin-treated rats
Protocol: This Example illustrates the effect of selected mercapto and seleno derivatives on iNOS activity in lung homogenates prepared from rats treated with endotoxin. […] The homogenization buffer was composed of 50 mM tris-HCL, 0.1 mM EDTA, 0.1 mM EGTA and 1 mM phenylmethylsulfonyl chloride (pH 7.4). Cell suspensions were homogenized in the homogenization buffer on ice using a Tissue Tearor 985-370 homogenizer (BioSpec Products, Racine, Wis.).

[7] = Mean arterial blood pressure in normal anesthetized rats; format: in vivo, Male Wistar rats; details: i.v. or i.p.
Protocol: An increase in blood pressure by agents that inhibit NOS is a good measure of their inhibitory effect on the constitutive, endothelial NOS (ecNOS).
In this particular example, Male Wistar rats were anesthetized with thiopentone sodium (120 mg/kg, i.p). The trachea was cannulated to facilitate respiration and the rectal temperature was maintained at 37° C. by means of a rectal probe connected to a homeothermic blanket. The right carotid artery was cannulated and connected to a pressure transducer for the measurement of phasic and mean arterial blood pressure and heart rate. The left and right femoral veins were cannulated for the administration of drugs.

[8] = tested on: J774.2 macrophages; test: Nitrite production in immunostimulated J774.2 macrophages (E.coli LPS + murine gamma-interferon, 24 h); format: cell-based, mouse; details: Mus musculus
Protocol: This example illustrates the effect of selected mercapto and seleno derivatives on nitrite production in J774.2 immunostimulated macrophages. The J774.2 mouse macrophage cell line was obtained from the ATCC and was cultured in DMEM with 4×10^-3 M L-glutamine and 10% fetal calf serum. Cells were cultured in 96-well plates with 200 μl culture medium until they reached 60-80% confluence. To induce INOS, fresh culture medium containing E.coli LPS (10 μg/ml) and murine gamma-interferon (IFN)(50 U/ml) was added. Nitrite accumulation in the cell culture medium in the absence or presence of various inhibitors was measured after 24 hours. Nitrite production, an indicator of NO synthesis, was measured in the supernatant of J774.2 macrophages by the Greiss reaction as described in Example 1 above.
This Example illustrates the effect of selected seleno derivatives on endotoxin-induced nitrite formation in J774.2 macrophages. The mouse macrophage cell line J774.2 obtained from the ATCC was cultured in DMEM with 4×10^-3 M L-glutamine and 10% fetal calf serum. Cells were cultured in 96-well plates with 200 μl culture medium until they reached 60-80% confluence. To induce iNOS, fresh culture medium containing E.coli LPS (10 μg/ml) and murine gamma-interferon (IFN)(50 U/ml) were added. Nitrite accumulation in the cell culture medium in the absence or presence of various inhibitors was measured after 24 hours. There was no detectable nitrite production by the J774.2 macrophages in the absence of immunostimulation. However, in the presence of IFN and LPS, nitrite concentration of the medium increased to 17±2 μM in the absence of inhibitor.

| SMILES | EC50 ([1]; J774, 24 h) [µM] | EC50 [2] [µM] | EC50 [3] [µM] | EC50 ([4]; ecNOS (Table 2), read-out: EC50 for inhibition of ecNOS activity in tissue homogenates) [mM] | NOS inhibition / isoform selectivity, in words [5] | EC50 ([4]; n=6, bovine aorta, read-out: EC50, dose dependent inhibition of ecNOS activity) [mM] | iNOS ACTIVITY (%) ([6]; inhibitor concentration -3.000 log M) | iNOS ACTIVITY (%) ([6]; inhibitor concentration -4.000 log M) | iNOS ACTIVITY (%) ([6]; inhibitor concentration -5.000 log M) | iNOS ACTIVITY (%) ([6]; inhibitor concentration -6.000 log M) | iNOS ACTIVITY (%) ([6]; inhibitor concentration -7.000 log M) | inhibition of iNOS activity, in words ([6]; lung homogenates, rats treated with endotoxin) | mean arterial blood pressure (MAP) response [7] | EC50 ([1]; J774, endotoxin 10 μg/ml, 24 h (Table 1)) [µM] | activity at 1000 µM ([8]; J774.2, 24 h, inhibitor concentration -3.000 log M (Table 3), read-out: NITRITE (% OF CONTROL)) [%] | activity at 100 µM ([8]; J774.2, 24 h, inhibitor concentration -4.000 log M (Table 3), read-out: NITRITE (% OF CONTROL)) [%] | activity at 10 µM ([8]; J774.2, 24 h, inhibitor concentration -5.000 log M (Table 3), read-out: NITRITE (% OF CONTROL)) [%] | activity at 1 µM ([8]; J774.2, 24 h, inhibitor concentration -6.000 log M (Table 3), read-out: NITRITE (% OF CONTROL)) [%] | EC50 ([8]; J774.2, IFN and LPS, Example 9, read-out: EC50, inhibition of nitrite production) [µM] |
| --- | --- | --- | --- | --- | --- | --- | --- | --- | --- | --- | --- | --- | --- | --- | --- | --- | --- | --- | --- |
| N=C(N)NN [Aminoguanidine, reference compound] | 120 | 80 | 220 | 2.6 | selectively inhibit the inducible isoform of nitric oxide synthase | – | – | – | – | – | – | – | – | – | – | – | – | – | – |
| COC(=O)[C@@H](N)CCCNC(=N)N[N+](=O)[O-] [L-NAME, NG-nitro-L-arginine methyl ester, reference compound] | – | – | – | – | inhibit both the constitutive and the inducible NOS isoforms to a similar extent | 0.002 | – | – | – | – | – | – | – | – | – | – | – | – | – |
| CNC(=N)NCCC[C@H](N)C(=O)O [L-NMA, N^G -Methyl-L-arginine, reference compound] | – | 17 | – | – | – | – | 18.000 | 40.00 | 100.000 | 100.000 | 100.000 | somewhat similar in their inhibitory effect on INOS activity | pronounced and dose-dependent pressor response | 159 | 12.6 | 45 | 73.5 | 95 | 90 |
